In patent publication US8362000B2, “Azetidinyl diamides as monoacylglycerol lipase inhibitors” (Janssen Pharmaceutica NV, priority 2009, dated 2013):
Residue numbers refer to the chain shown, from its start.

Molecular target: T1, purified wild type MGL (wt-MGLL 6H-11-313) (Homo sapiens, UniProt Q99685)
T1 sequence (Q99685 1-303): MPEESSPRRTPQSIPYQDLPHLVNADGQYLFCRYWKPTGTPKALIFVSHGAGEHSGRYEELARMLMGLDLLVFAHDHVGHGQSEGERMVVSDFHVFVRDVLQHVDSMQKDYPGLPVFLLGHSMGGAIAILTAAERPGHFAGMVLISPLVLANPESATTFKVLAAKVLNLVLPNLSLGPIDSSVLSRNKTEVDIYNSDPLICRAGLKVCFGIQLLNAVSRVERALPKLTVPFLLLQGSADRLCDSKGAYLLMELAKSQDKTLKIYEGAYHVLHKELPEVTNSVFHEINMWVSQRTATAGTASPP
Test: not given
Conditions: not given

SMILES | IC50
CC1CN(C2CN(C(=O)c3ccc(-c4ccccc4)cc3)C2)CCN1C(=O)c1nccs1 (stereo not drawn) [Cpd 117] | 4230 nM
O=C(c1ccccc1)N1CCN(C2CN(C(=O)c3cc4cc(C(F)(F)F)ccc4s3)C2)CC1 [Cpd 124] | 321 nM
O=C(c1cccc(-c2ccc(C(F)(F)F)cc2)c1)N1CC(N2CCN(C(=O)c3nccs3)CC2)C1 [Cpd 149] | 76.9 nM
O=C(c1ccc(-c2ccccc2)cc1)N1CC(N2CCN(C(=O)C3CC3)CC2)C1 [Cpd 303] | 173 nM
Cc1cn(-c2ccc(F)cc2)c2ccc(C(=O)N3CC(N4CCN(C(=O)c5ccccc5)CC4)C3)cc12 [Cpd 584] | 105 nM
Cn1cc(-c2ccccc2)c2ccc(C(=O)N3CC(N4CCN(C(=O)c5ccccc5)CC4)C3)cc21 [Cpd 585] | 107 nM
O=C(c1ccccc1)N1CCN(C2CN(C(=O)c3ccc4c(-c5ccccc5)ncnc4c3)C2)CC1 [Cpd 604] | 1840 nM
Cc1nc2cc(C(=O)N3CC(N4CCN(C(=O)c5ccccc5)CC4)C3)ccc2n1-c1ccccc1 [Cpd 635] | 838 nM
O=C(c1ccc(Oc2ccccc2Cl)nc1)N1CC(N2CCN(C(=O)c3nccs3)CC2)C1 [Cpd 708] | 106 nM
O=C(c1nccs1)N1CCN(C2CN(C(=O)c3nc4cc(Cl)ccc4s3)C2)CC1 [Cpd 728] | 231 nM
Cc1cccc(Nc2ccccc2C(=O)N2CC(N3CCN(C(=O)c4nccs4)CC3)C2)c1C [Cpd 744] | 335 nM
O=C(c1nccs1)N1CCN(C2CN(C(=O)c3ccccc3Nc3cccc(F)c3)C2)CC1 [Cpd 754] | 447 nM
O=C(c1nccs1)N1CCN(C2CN(C(=O)c3ccccc3Nc3ccccc3)C2)CC1 [Cpd 781] | 1040 nM
O=C(c1ccc2[nH]c3c(c2c1)CCCC3)N1CC(N2CCN(C(=O)c3cscn3)CC2)C1 [Cpd 817] | 2700 nM
O=C(c1cscn1)N1CC(N2CCN(C(=O)c3nc4cc(Cl)ccc4s3)CC2)C1 [Cpd 821] | 2850 nM
O=C(c1ccc(S(=O)(=O)c2ccccc2)cc1)N1CC(N2CCN(C(=O)c3cscn3)CC2)C1 [Cpd 822] | 2860 nM
COc1cccc2c(C)c(C(=O)N3CCN(C4CN(C(=O)c5nccs5)C4)CC3)[nH]c12 [Cpd 846] | 6450 nM
Cc1c(-c2ccccc2)oc2c(C(=O)N3CCN(C4CN(C(=O)c5nccs5)C4)CC3c3ccccc3)cccc2c1=O (stereo not drawn) [Cpd 854] | 8410 nM

Further lines, results first:

IC50 | SMILES
2190 nM | O=C(c1ccccc1)N1CCN(C2CN(C(=O)c3ccc(Oc4ccccc4Cl)nc3)C2)CC1 [Cpd 521]
2040 nM | O=C(c1ccccc1)N1CC(N2CCN(C(=O)c3ccc(-c4ccccc4)cc3)CC23CC3)C1 [Cpd 606]
7 nM | O=C(c1ccc(Oc2cc(C(F)(F)F)ccn2)cc1)N1CC(N2CCN(C(=O)c3nccs3)CC2)C1 [Cpd 652]
636 nM | O=C(c1nccs1)N1CC(N2CCN(C(=O)c3nc4cc(Cl)ccc4s3)CC2)C1 [Cpd 764]
691 nM | Cn1c2ccccc2c2cc(C(=O)N3CC(N4CCN(C(=O)c5cscn5)CC4)C3)ccc21 [Cpd 767]
697 nM | O=C(c1nccs1)N1CCN(C2CN(C(=O)c3ccccc3Nc3cccc(C(F)(F)F)c3)C2)CC1 [Cpd 768]

Molecular target: T2, mutant MGL (Homo sapiens, UniProt Q99685, L169S/L176S)
T2 sequence (Q99685 1-303 L169S/L176S): T1 sequence (Q99685 1-303) with L169S, L176S
Test: MGL ThermoFluor assay - mutant
Assay type: binding
Conditions: ThermoFluor concentration-response, read-out: MGL mutant ThermoFluor Kd
Experimental: The ThermoFluor (TF) assay is a 384-well plate-based binding assay that measures thermal stability of proteins^1,2. […] TF dye used in all experiments was 1,8-ANS (Invitrogen: A-47). Final TF assay conditions used for MGL studies were 0.07 mg/ml of mutant MGL, 100 μM ANS, 200 mM NaCl, 0.001% Tween-20 in 50 mM PIPES (pH=7.0).
Screening compound plates contained 100% DMSO compound solutions at a single concentration. […] Columns 12 and 24 were used as DMSO reference and contained no compound. […] Following compound dispension, protein and dye solutions were added to achieve the final assay volume of 3 μL.
Bar-coded assay plates were robotically loaded onto a thermostatically controlled PCR-type thermal block and then heated from 40 to 90° C. degrees at a ramp-rate of 1° C./min for all experiments. Fluorescence was measured by continuous illumination with UV light (Hamamatsu LC6), supplied via fiber optics and filtered through a band-pass filter (380-400 nm; >60D cutoff). Fluorescence emission of the entire 384-well plate was detected by measuring light intensity using a CCD camera (Sensys, Roper Scientific) filtered to detect 500±25 nm, resulting in simultaneous and independent readings of all 384 wells. A single image with 20-sec exposure time was collected at each temperature, and the sum of the pixel intensity in a given area of the assay plate was recorded vs temperature and fit to standard equations to yield the Tm^1. • 1.
For some experiments, quantitative NMR spectroscopy (qNMR) was used to measure concentration of the initial 100% DMSO compound solutions and, using the same fitting method, qKd values were determined

SMILES | Kd
O=C(c1ccc2c(ccn2-c2ncc(F)cn2)c1)N1CC(N2CCN(C(=O)c3cscn3)CC2)C1 [Cpd 1248, 1-(5-Fluoropyrimidin-2-yl)-5-({3-[4-(1,3-thiazol-4-ylcarbonyl)piperazin-1-yl]azetidin-1-yl}carbonyl)-1H-indole] | 0.043 µM
O=C(c1ccc(-c2ccccc2)cc1)N1CCN(C2CN(C(=O)c3ncccn3)C2)CC1 [Cpd 1400, 2-({3-[4-(Biphenyl-4-ylcarbonyl)piperazin-1-yl]azetidin-1-yl}carbonyl)pyrimidine] | 4.07 µM
O=C(c1ccc(-c2ccccc2)cc1)N1CCN(C2CN(C(=O)c3nccs3)C2)C(c2ccccc2)C1 (stereo not drawn) [Cpd 1401, 4-(Biphenyl-4-ylcarbonyl)-2-phenyl-1-[1-(1,3-thiazol-2-ylcarbonyl)azetidin-3-yl]piperazine] | 1.25 µM
O=C(c1ccc2c(c1)C(Cc1ccccc1)(Cc1ccccc1)C(=O)N2Cc1ccccc1)N1CC(N2CCN(C(=O)c3nccs3)CC2)C1 [Cpd 1431] | 0.035 µM
O=C(c1ccc(Cc2ccccc2)cc1)N1CC(N2CCN(C(=O)c3nccs3)C(c3ccccc3)C2)C1 (stereo not drawn) [Cpd 1464, 4-{1-[(4-Benzylphenyl)carbonyl]azetidin-3-yl}-2-phenyl-1-(1,3-thiazol-2-ylcarbonyl)piperazine] | > 31.2 µM
O=C(c1ccccc1)N1CCN(C2CN(C(=O)c3ccc(Oc4ccccn4)cc3)C2)CC1 [Cpd 1484] | 20 µM

Now from value to compound:

Kd | SMILES
0.04 µM | O=C(c1ccc2c(ccn2C(=O)c2ccc3c(c2)CCN3)c1)N1CC(N2CCN(C(=O)c3nccs3)CC2)C1 [Cpd 988, 1-(2,3-Dihydro-1H-indol-5-ylcarbonyl)-5-({3-[4-(1,3-thiazol-2-ylcarbonyl)piperazin-1-yl]azetidin-1-yl}carbonyl)-1H-indole]
0.006 µM | COc1cc(C(=O)N2CC(N3CCN(C(=O)c4nccs4)CC3)C2)ccc1-c1ccccc1 [Cpd 1377]
0.108 µM | O=C(c1ccc(-c2ccccc2)cc1)N1CCN(C2CN(C(=O)c3ccc[nH]3)C2)CC1 [Cpd 1383, 1-(Biphenyl-4-ylcarbonyl)-4-[1-(1H-pyrrol-2-ylcarbonyl)azetidin-3-yl]piperazine]
2 µM | O=C(c1ccc(-c2ccccc2)cc1)N1CCN(C2CN(C(=O)c3cscn3)C2)C(c2ccccc2)C1 (stereo not drawn) [Cpd 1402, 4-(Biphenyl-4-ylcarbonyl)-2-phenyl-1-[1-(1,3-thiazol-4-ylcarbonyl)azetidin-3-yl]piperazine]
> 31.2 µM | O=C(c1ccc(-c2ccccc2)cc1)N1CC(N2CCN(C(=O)c3nccs3)C(c3ccccc3)C2)C1 (stereo not drawn) [Cpd 1404, 4-[1-(Biphenyl-4-ylcarbonyl)azetidin-3-yl]-2-phenyl-1-(1,3-thiazol-2-ylcarbonyl)piperazine]

Same assay, conditions: ThermoFluor thermal stability binding assay, read-out: MGL mutant ThermoFluor Kd

SMILES | Kd
O=C(c1nccs1)N1CCN(C2CN(C(=O)c3cccc4nc(Cc5ccccc5F)[nH]c34)C2)CC1 [Cpd 989] | 1.25 µM
O=C(c1nccs1)N1CCN(C2CN(C(=O)c3cccc4nc(Cc5cccc(F)c5)[nH]c34)C2)CC1 [Cpd 990] | 1 µM
O=C(c1nccs1)N1CCN(C2CN(C(=O)c3cccc4nc(Cc5ccc(Cl)cc5)[nH]c34)C2)CC1 [Cpd 991] | 0.2 µM
O=C(c1cscn1)N1CCN(C2CN(C(=O)c3cccc4nc(-c5ccc(Cl)cc5)oc34)C2)CC1 [Cpd 1380, 2-(4-Chlorophenyl)-7-({3-[4-(1,3-thiazol-4-ylcarbonyl)piperazin-1-yl]azetidin-1-yl}carbonyl)-1,3-benzoxazole] | 0.246 µM
O=C(c1nccs1)N1CCN(C2CN(C(=O)c3nc(-c4ccccc4)oc3C(F)(F)F)C2)CC1 [Cpd 1385] | 0.206 µM
O=C(c1cscn1)N1CCN(C2CN(C(=O)c3csc(-c4cc(Cl)cc(Cl)c4)n3)C2)CC1 [Cpd 1395] | 1.81 µM
Cc1oc(-c2ccccc2)cc1C(=O)N1CC(N2CCN(C(=O)c3cscn3)CC2)C1 [Cpd 1396] | 0.317 µM
O=C(c1ccc(-c2ccccc2)cc1)N1CC(N2CCN(C(=O)C3CCCC3)CC2)C1 [Cpd 1398] | 0.182 µM
O=C(c1cscn1)N1CCN(C2CN(C(=O)c3nc(-c4ccccc4)oc3C(F)(F)F)C2)CC1 [Cpd 1403] | 1.69 µM
Cc1nc(-c2cccc(C(F)(F)F)c2)sc1C(=O)N1CC(N2CCN(C(=O)c3nccs3)CC2)C1 [Cpd 1407, 1-[1-({4-Methyl-2-[3-(trifluoromethyl)phenyl]-1,3-thiazol-5-yl}carbonyl)azetidin-3-yl]-4-(1,3-thiazol-2-ylcarbonyl)piperazine] | 0.005 µM
O=C(c1cscn1)N1CCN(C2CN(C(=O)c3cnn(-c4ccccc4)c3C(F)(F)F)C2)CC1 [Cpd 1477] | > 31.2 µM
O=C(c1ccc(-c2ccccc2)cc1)N1CC(N2CCN(C(=O)c3cscn3)C(c3ccccc3)C2)C1 (stereo not drawn) [Cpd 1481] | > 31.2 µM

More lines, now with the values ahead:

Kd | SMILES
0.133 µM | Cc1nc(-c2ccc(F)cc2)sc1C(=O)N1CC(N2CCN(C(=O)c3cscn3)CC2)C1 [Cpd 1386]
0.422 µM | O=C(c1cscn1)N1CCN(C2CN(C(=O)c3cccc4nc(-c5cccc(Cl)c5)[nH]c34)C2)CC1 [Cpd 1389]
0.659 µM | O=C(c1nccs1)N1CCN(C2CN(C(=O)c3cnn(-c4ccccc4)c3C(F)(F)F)C2)CC1 [Cpd 1392]
0.5 µM | O=C(c1cscn1)N1CCN(C2CN(C(=O)c3cc(-c4ccccc4)oc3C(F)(F)F)C2)CC1 [Cpd 1397]
> 31.2 µM | O=C(c1ccc(-c2ccccc2)cc1)N1CC(N2CCN(C(=O)c3ncccn3)CC2)C1 [Cpd 1478]

Same assay, conditions: ThermoFluor, compound concentration measured by qNMR, read-out: MGL mutant ThermoFluor qKd (using qNMR conc.)

Kd | SMILES
0.264 µM | Cc1ccnc(-n2ccc3cc(C(=O)N4CC(N5CCN(C(=O)C(F)(F)F)CC5)C4)ccc32)c1 [Cpd 1199, 1-(4-Methylpyridin-2-yl)-5-({3-[4-(trifluoroacetyl)piperazin-1-yl]azetidin-1-yl}carbonyl)-1H-indole]

Same assay, conditions: ThermoFluor, compound concentration measured by qNMR, read-out: MGL mutant ThermoFluor qKd (μM) (using qNMR conc.)

Kd | SMILES
0.044 µM | Cc1cc(-n2ccc3cc(C(=O)N4CC(N5CCN(C(=O)c6cscn6)CC5)C4)ccc32)ccc1C#N [Cpd 1421, 2-Methyl-4-[5-({3-[4-(1,3-thiazol-4-ylcarbonyl)piperazin-1-yl]azetidin-1-yl}carbonyl)-1H-indol-1-yl]benzonitrile]
